Ten compounds from US20080262049A1, “Therapeutic Agent for Hematopoietic Tumor” (KYOWA HAKKO KOGYO CO., LTD., priority 2005, published 2008) can be followed below.

Where a name gives a salt, the structure may show the parent alone.

Data set [1] has as its target T1, recombinant human Eg5 motor domain protein (Homo sapiens, UniProt P52732).
T1 construct: A plasmid expressing the motor domain of human Eg5 was constructed; made in house; host or cells: Escherichia coli BL21 (DE3)
T1 sequence (P52732 18-359 limits assumed): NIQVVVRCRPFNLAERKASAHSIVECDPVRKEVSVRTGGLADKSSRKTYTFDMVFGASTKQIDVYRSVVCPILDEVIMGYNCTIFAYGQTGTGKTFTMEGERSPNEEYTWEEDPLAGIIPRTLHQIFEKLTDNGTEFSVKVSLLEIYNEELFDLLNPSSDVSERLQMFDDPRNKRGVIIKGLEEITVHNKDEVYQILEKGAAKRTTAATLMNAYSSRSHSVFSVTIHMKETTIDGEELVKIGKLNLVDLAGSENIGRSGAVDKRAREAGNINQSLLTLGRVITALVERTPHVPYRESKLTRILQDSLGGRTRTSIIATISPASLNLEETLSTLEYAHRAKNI
In words: Eg5 enzyme inhibition test (ATPase activity). In kind it is biochemical. The settings on record: for inhibition of the ATPase activity of Eg5 (in words): 30° C., 30 minutes, absorbance at 360 nm; for Eg5 inhibitory activity compared with the corresponding racemic mixture (in words): versus Compounds 3, 4, 6, 7, 20, 14, 9, 8, the respectively corresponding racemic mixtures. As for the experimental part:
A recombinant human Eg5 motor domain protein was prepared by referring to the literature [Biochemistry, Vol. 35, p. […] A plasmid expressing the motor domain of human Eg5 was constructed, and transformed into Eseherichia coli BL21 (DE3). The transformant was cultured at 25° C., and when the OD600 reached 0.74, isopropyl-β-D-thiogalactoside was added at a final concentration of 0.5 mmol/L. The transformant was further cultured for 4 hours, and then the culture medium was centrifuged to collect the cells. The cells were suspended in a buffer and ultrasonicated, and then the sonicated solution was centrifuged to recover the supernatant. The supernatant was purified by cation exchange column chromatography to obtain a partially purified sample. Furthermore, the partially purified sample was purified by gel filtration column chromatography to obtain a finally purified sample.
Measurement of the ATPase activity of Eg5 was carried out by referring to the literatures [EMBO Journal, Vol. 13, p. […] Solution A was dispensed into each well of a 96-well plate as 45 μL portions. Solution B was used to serially dilute a test compound. The diluted test compound solutions in a volume of 30 μL were mixed with Solution A added beforehand in each well of the 96-well plate to start the enzymatic reaction. The enzymatic reaction was performed at 30° C. for 30 minutes. […] The relative activity was calculated to calculate IC50 value.

The test system of data set [2] is human multiple myeloma NCI-H929 cells. In words: Cell growth inhibition test against hematopoietic tumor cell lines (XTT), NCI-H929. The settings on record: 72 hours culture with compound, read-out: growth inhibitory activity, GI50 value. In kind it is cell-based. The text has this:
(§1) As hematopoietic tumor cell lines, human acute lymphoblastic leukemia RS4;11 cells (ATCC No. CRL-1873), human chronic myeloid leukemia K-562 cells (ATCC No. CCL-243), and human multiple myeloma NCI-H929 cells (ATCC No. CRL-9068) were used. For the culture of the cells, RPMI 1640 Medium (Invitrogen, catalog No. 11875-093) containing 10% fetal bovine serum (Invitrogen, catalog No. 10099-141), 10 mmol/L 4-(2-hydroxyethyl)-1-piperazinethanesulfonic acid (HEPES) buffer (ICN Biomedicals, catalog No. 1688449), 1 mmol/L sodium pyruvate (Invitrogen, catalog No. 11360-070), 4.5 g/L glucose (Sigma-Aldrich, catalog No. G8769), 100 units/mL penicillin (Invitrogen, catalog No. 15140-122) and 100 μg/mL streptomycin (Invitrogen, catalog No. 15140-122) was used. The cells were cultured at 37° C. in a 5% carbon dioxide atmosphere.
(§2) RS4;11 cells (20000 cells/well), K-562 cells (1000 cells/well), or NCI-H929 cells (15000 cells/well) were seeded in each well of 96-well plates (Nunc, catalog No. 167008), and cultured overnight. Test compounds diluted stepwise were added, and the cells were further cultured for 72 hours (final volume: 100 μL/well). Fifty μL XTT labeling mixture of Cell Proliferation Kit II (XTT) (Roche Diagnostics, catalog No. 1465015) was added to each well, and the plates were incubated at 37° C. After 4 hours, absorbance at 490 nm (reference wavelength: 655 nm) was measured with a plate reader (Molecular Device, SpectraMax 340PC^384). Growth ratios of the cells in the wells treated with the test compound was calculated based on the growth ratio of the cells in the control well treated with solvent (dimethyl sulfoxide (DMSO)) for 72 hours, which was defined as 100%.

The subject of data set [3] is human non-Hodgkin's lymphoma SR cells. In words: Cell growth inhibition test on non-Hodgkin's lymphoma cells (XTT), SR. The class given is cell-based. The settings on record: same manner as Test Example 1, read-out: growth inhibitory activity, GI50 value. As for the experimental part: as §2
(§3) As cancer cell lines, human acute myeloid leukemia MV-4-11 cells (ATCC No. CRL-9591) and human non-Hodgkin's lymphoma SR cells (ATCC No. CRL-2262) were used. The cells were cultured at 37° C. in a 5% carbon dioxide atmosphere by using the mediums mentioned below, respectively.
(§4) In the same manner as that of Test Example 1, the cells were seeded (8000 to 16000 cells/well, respectively) in each well of 96-well plates (Nunc, catalog No. 167008), and growth ratios of the cells treated with test compounds were calculated. Measurement of absorbance was performed at 3 to 4 hours after the addition of the XTT labeling mixture.

Data set [4] has as its system human chronic myeloid leukemia K-562 cells. In words: Cell growth inhibition test against hematopoietic tumor cell lines (XTT), K-562. The class given is cell-based. Conditions: K562, 72 hours culture with compound, read-out: growth inhibitory activity, GI50 value.
Source text: as §1, §2

In data set [5] the test system is human acute myeloid leukemia MV-4-11 cells. In words: Cell growth inhibition test on acute myeloid leukemia cells (XTT), MV-4-11. In kind it is cell-based. Conditions: MV4-11, same manner as Test Example 1, read-out: growth inhibitory activity, GI50 value. As for the experimental part:
as §2, §3, §4

For data set [6], the system named is human acute lymphoblastic leukemia RS4;11 cells. Description: Cell growth inhibition test against hematopoietic tumor cell lines (XTT), RS4;11. The class given is cell-based. The settings on record: 72 hours culture with compound, read-out: growth inhibitory activity, GI50 value.
Source text: as §1, §2

Turning to `CC(C)(C)C(=O)NC1=NN(C(=O)C(C)(C)C)C(CN)(c2ccccc2)S1` (stereo not drawn) (as salt: hydrochloride) [Compound j, N-[5-Aminomethyl-4-(2,2-dimethylpropionyl)-5-phenyl-4,5-dihydro-1,3,4-thiadiazol-2-yl]-2,2-dimethylpropanamide], the melting point was in the range of 175 to 182 °C.

As to `CCNCCS(=O)(=O)NCCC1(c2ccccc2)SC(NC(=O)C(C)(C)C)=NN1C(=O)C(C)(C)C` (racemic) [Compound 14, N-{4-(2,2-Dimethylpropionyl)-5-[2-(2-ethylaminoethanesulfonylamino)-ethyl]-5-phenyl-4,5-dihydro-1,3,4-thiadiazol-2-yl}-2,2-dimethylpropanamide], the “inhibition of the ATPase activity of Eg5 (in words)” value (“inhibition” below) in data set [1] was “inhibited the ATPase activity of Eg5 in a concentration-dependent manner”.

`CC(=O)N1N=C(N2CCCCC2=O)SC1(CCNS(C)(=O)=O)c1ccccc1` (racemic) [Compound 20, N-{2-[3-Acetyl-5-(2-oxopiperidino)-2-phenyl-2,3-dihydro-1,3,4-thiadiazol-2-yl]ethyl}methanesulfonamide]: the “inhibition” value in data set [1] is “inhibited the ATPase activity of Eg5 in a concentration-dependent manner”.

With `CCNCCS(=O)(=O)NCCC1(c2ccccc2)SC(NC(=O)C(C)(C)C)=NN1C(=O)C(C)(C)C` (single isomer, unassigned) [Compound i, N-{4-(2,2-Dimethylpropionyl)-5-[2-(2-ethylaminoethanesulfonylamino)-ethyl]-5-phenyl-4,5-dihydro-1,3,4-thiadiazol-2-yl}-2,2-dimethylpropanamide], the GI50 in data set [2], in data set [3], in data set [4], in data set [5] and in data set [6] was below 10 µM in each case. The “inhibition” value in data set [1] is reported as “inhibited the ATPase activity of Eg5 in a concentration-dependent manner”. Moreover, the “Eg5 inhibitory activity compared with the corresponding racemic mixture (in words)” value in data set [1] is “stronger inhibitory activities”.

Turning to `CC(C)(C)C(=O)NC1=NN(C(=O)C(C)(C)C)C(CCCC(=O)NCCO)(c2ccccc2)S1` (single isomer, unassigned) [Compound o, 4-[3-(2,2-Dimethylpropionyl)-5-(2,2-dimethylpropionylamino)-2-phenyl-2,3-dihydro-1,3,4-thiadiazol-2-yl]-N-(2-hydroxyethyl)butanamide], the GI50 in data set [2], in data set [3], in data set [4], in data set [5] and in data set [6] was below 10 µM throughout. Also, the “inhibition” value in data set [1] is given as “inhibited the ATPase activity of Eg5 in a concentration-dependent manner”. In addition, the “Eg5 inhibitory activity compared with the corresponding racemic mixture (in words)” value in data set [1] is reported as “stronger inhibitory activities”.

For `CC(C)(C)C(=O)NC1=NN(C(=O)C(C)(C)C)C(CCNS(C)(=O)=O)(c2ccccc2)S1` (single isomer, unassigned; (-)) [Compound a, (−)-N-[4-(2,2-Dimethylpropionyl)-5-(2-methanesulfonylaminoethyl)-5-phenyl-4,5-dihydro-1,3,4-thiadiazol-2-yl]-2,2-dimethylpropanamide], the 50% growth inhibitory concentration (GI50) in data set [2], in data set [3], in data set [4], in data set [5] and in data set [6] was below 10 µM throughout. Further, in data set [1], the “inhibition” value is on record as “inhibited the ATPase activity of Eg5 in a concentration-dependent manner”. In data set [1], the “Eg5 inhibitory activity compared with the corresponding racemic mixture (in words)” value is recorded as “stronger inhibitory activities”.

For the compound `CCC(=O)N1N=C(NC(=O)C(C)(C)C)SC1(CCNS(C)(=O)=O)c1ccccc1` (single isomer, unassigned; (-)) [Compound b, (−)-N-[5-(2-Methanesulfonylaminoethyl)-5-phenyl-4-propionyl-4,5-dihydro-1,3,4-thiadiazol-2-yl]-2,2-dimethylpropanamide], the concentration for 50% growth inhibition (GI50) in data set [2], in data set [3], in data set [4], in data set [5] and in data set [6] was below 10 µM in each case. Moreover, the “inhibition” value in data set [1] is “inhibited the ATPase activity of Eg5 in a concentration-dependent manner”. For the same compound, the “Eg5 inhibitory activity compared with the corresponding racemic mixture (in words)” value in data set [1] is “stronger inhibitory activities”.

Turning to `CC(C)C(=O)N1N=C(NC(=O)C(C)(C)C)SC1(CCNS(C)(=O)=O)c1ccccc1` (single isomer, unassigned; (-)) [Compound d, (−)-N-[4-Isobutyryl-5-(2-methanesulfonylaminoethyl)-5-phenyl-4,5-dihydro-1,3,4-thiadiazol-2-yl]-2,2-dimethylpropanamide], the 50% growth inhibitory concentration (GI50) in data set [2], in data set [3], in data set [4], in data set [5] and in data set [6] was below 10 µM each time. Besides, in data set [1], the “inhibition” value is “inhibited the ATPase activity of Eg5 in a concentration-dependent manner”. The “Eg5 inhibitory activity compared with the corresponding racemic mixture (in words)” value in data set [1] was “stronger inhibitory activities”.

For `CCNCCS(=O)(=O)NCC1(c2ccccc2)SC(NC(=O)C(C)(C)C)=NN1C(=O)C(C)(C)C` (single isomer, unassigned; (-)) [Compound l, (−)-N-[4-(2,2-Dimethylpropionyl)-5-(2-ethylaminoethanesulfonylaminomethyl)-5-phenyl-4,5-dihydro-1,3,4-thiadiazol-2-yl]-2,2-dimethylpropanamide], the concentration for 50% growth inhibition (GI50) in data set [2], in data set [3], in data set [4], in data set [5] and in data set [6] was below 10 µM throughout. Further, the “inhibition” value in data set [1] was “inhibited the ATPase activity of Eg5 in a concentration-dependent manner”. The “Eg5 inhibitory activity compared with the corresponding racemic mixture (in words)” value in data set [1] is given as “stronger inhibitory activities”.

Regarding `CC(C)(C)C(=O)NC1=NN(C(=O)C(C)(C)C)C(CN)(c2ccccc2)S1` (stereo not drawn) [Compound j, N-[5-Aminomethyl-4-(2,2-dimethylpropionyl)-5-phenyl-4,5-dihydro-1,3,4-thiadiazol-2-yl]-2,2-dimethylpropanamide], the 50% growth inhibitory concentration (GI50) in data set [2], in data set [4] and in data set [6] was below 10 µM each time.
